Assay results reported in patent US5091398A, “Substituted 1,2,3,4-oxatriazolium-5-olates, a process for their preparation and their use” (Cassella Aktiengellschaft, priority 1989, dated 1992).
Where two headings read alike, the source gives them in different places.

System: pulmonary artery of the guinea pig
Assay: relaxing effect on spiral strips of the pulmonary artery of the guinea pig (modified method of Godfraind and Kaba and of Schuman et al.)
Details: strips depolarised with 40 mmol/l potassium in calcium-free Tyrode solution, contraction by 0.5 mmol/l CaCl2, cumulative addition, mean value of 4 to 6 vessel strips, read-out: IC50 (concentration of the test substance which inhibits the contraction by 50%) (converted)
Experimental: The pharmacological effect of the compounds of the formula I was determined according to a modified method of Godfraind and Kaba (Arch. Int. Phamacodyn. Ther. 196, (Suppl) 35 to 49, 1972) and of Schuman et al. (Naunyn-Schmiedeberg's Arch. Phamacol. 289, 409 to 418, 1975). Spiral strips of the pulmonary artery of the guinea pig are depolarised with 40 mmol/1 of potassium after equilibration in calcium-free Tyrode solution. An addition of 0.5 mmol/1 of CaCl2 then induces a contraction. The relaxing effect of the test substance is determined by cumulative addition in 1/2 log 10 stepped concentrations. The concentration of the test substance which inhibits the contraction by 50% (=IC50, mol/1) is determined from the concentration-effect curve (abscissa: -log mol/1 of test substance, ordinate: percentage inhibition of the maximum contraction, mean value of 4 to 6 vessel strips).

SMILES | IC50 (Cavia porcellus) [nM] | IC50 [nM]
CCC(C)(C)[n+]1noc([O-])n1 [Example 1, 3-tert-Pentyl-1,2,3,4-oxatriazolium-5-olate] | 3000 | 
CC(C)(C)NC(=O)C(C)(C)[n+]1noc([O-])n1 [Example 4, 3-(1-tert-Butylaminocarbonyl-1-methylethyl)-1,2,3,4-oxatriazolium-5-olate] | 60000 | 
CCCC(C)(C)[n+]1noc([O-])n1 [Example 5, 3-(2-Methylpent-2-yl)-1,2,3,4-oxatriazolium-5-olate] | 600 | 
CCOC(=O)[N-]c1cn(N2CCOCC2)n[o+]1 [Molsidomine, N-ethoxycarbonyl-3-morpholinosydnoneimine, reference compound] |  | > 100000
